From ChEMBL document CHEMBL1137503, “Structure-based design, synthesis, and biological evaluation of peptidomimetic SARS-CoV 3CLpro inhibitors” (Bioorg Med Chem Lett, 2007)

Columns and labels:
[1] = target: Replicase polyprotein 1ab (Severe acute respiratory syndrome-related coronavirus, UniProt P0C6X7); test: Inhibition of SARS-CoV 3C-like protease by FRET based microplate assay
SARS-CoV = test: Antiviral activity against SARS coronavirus; format: functional, organism-based; conditions: Severe acute respiratory syndrome-related coronavirus

| Compound | IC50 [1] [µM] | IC50 (SARS-CoV) [µM] |
| --- | --- | --- |
| CCOC(=O)/C=C/[C@H](C[C@@H]1CCNC1=O)NC(=O)[C@H](CC=C(C)C)CC(=O)[C@@H](NC(=O)c1cc(C)on1)C(C)C | 800 | 70 |
| CCOC(=O)/C=C/[C@H](C[C@@H]1CCNC1=O)NC(=O)[C@H](CC=C(C)C)CC(=O)[C@@H](NC(=O)[C@H](CO)NC(=O)OC(C)(C)C)C(C)C | 80 | 75 |
| CCOC(=O)/C=C/[C@H](C[C@@H]1CCNC1=O)NC(=O)[C@H](CC(C)C)NC(=O)[C@@H](NC(=O)c1cc(C)on1)C(C)C | 200 |  |
| CCOC(=O)/C=C/[C@H](C[C@@H]1CCNC1=O)NC(=O)[C@@H](CC(=O)[C@@H](NC(=O)c1cc(C)on1)C(C)C)Cc1ccccc1 | 870 | 45 |
| CCOC(=O)/C=C/[C@H](C[C@@H]1CCNC1=O)NC(=O)[C@H](Cc1ccccc1)NC(=O)[C@@H](NC(=O)c1cc(C)on1)C(C)C | 300 |  |
| CCOC(=O)/C=C/[C@H](C[C@@H]1CCNC1=O)NC(=O)[C@H](Cc1ccccc1)NC(=O)[C@@H](NC(=O)[C@H](CO)NC(=O)OC(C)(C)C)C(C)C | 15 | 100 |
| CCOC(=O)/C=C/[C@H](C[C@@H]1CCNC1=O)NC(=O)[C@H](CC(C)C)NC(=O)[C@@H](NC(=O)[C@H](CO)NC(=O)OC(C)(C)C)C(C)C | 10 | 100 |
